The text below walks through data of patent US20070161665A1, “Cancer treatment method” (priority 2003, published 2007).

The test system of one assay is T47D cells. The assay can be described thus: Roche Cell Death ELISAPlus apoptosis assay in T47D cells (sensitization ratio). The format is cell-based, human. To be noted: compound at 25 μM, combined with GW589522. As to the method:
T47D cells are human breast ductal carcinoma cells originally obtained from the American Type Culture Collection.
(§1) Cell lines were grown in RPMI-1640 supplemented with 25 mM HEPES, 10 mM glutamine and 10% fetal bovine serum and maintained at 37° C. and 5% CO2 in a humid incubator. Assays were performed in 96 well microtiter plates with optimum seeding densities for each cell line.
(§2) Apoptosis was measured using the Roche Cell Death ELISA^Plus kit (catalog 1 774 425) which detects fragmented nucleosomal DNA that is generated during apoptosis.
The expected level of activity (Ae) is calculated by Ae=1−((1−A1)*(1−A2)) (3) where A1 and A2 are the activities of drugs 1 and 2 alone at the concentration used in the combination (Harvey, R. J., J. Theor. Biol. 74: 411-437, 1978).
Apoptosis was measured using the Roche Cell Death ELISA^Plus kit, and the relative percentage of apoptosis was determined for each combination.

For a further assay, the system named is HN5 cells. Kind of assay: Roche Cell Death ELISAPlus apoptosis assay in HN5 cells (median effect and sensitization ratio analysis). It counts as cell-based. To be noted: HN5, 5 μM GW589522A 24 h. As to the method: HN5 cells are LICR-LON-HN5 head and neck carcinoma cells, which were a gift from the Institute of Cancer Research, Surrey, U.K.
as §1, §2
Synergistic interaction between compounds was analyzed by the median effect method described by Chou and Talalay (Adv. Enzyme Regul. 22: 27-55, 1984). Briefly, if the two compounds fit the mutually exclusive model of Chou, one calculates the combination index (CI) using the formula CI=((D)1/(Dx)1)+((D)2/(Dx)2) (1) where (D)1 is the concentration of drug 1 in the combination that gives “x” percent apoptosis, (D)2 is the same for drug 2, and (Dx)1 and (Dx)2 are the concentrations of drug 1 or 2 that give “x” percent apoptosis when used alone. (D)1 and (D)2 are known from the composition of the combination and (Dx)1 and (Dx)2 can be calculated from the equation Dx=Dm*[fa/(1−fa)]^1/m (2) where Dm is the concentration of drug giving 50% effect, fa is the fraction affected, and m is the slope from the median effect plot of log (fa/fu) where fu is the fraction unaffected versus log (D). A CI less than 1 indicates synergy, equal to 1 indicates additivity and greater than 1 antagonism.
Sensitization is measured as the ratio between observed and expected apoptosis or caspase activation from a combination of AKT kinase inhibitor and EGFR/erb inhibitor. The expected level of activity (Ae) is calculated by Ae=1−((1−A1)*(1−A2)) (3) where A1 and A2 are the activities of drugs 1 and 2 alone at the concentration used in the combination (Harvey, R. J., J. Theor. Biol. 74: 411-437, 1978).

The next assay deals with AKT3 (Homo sapiens, UniProt Q9Y243). Kind of assay: Inhibition of AKT isoforms, enzyme IC50. The format is biochemical.
A further assay has as its target AKT2 (Homo sapiens, UniProt P31751). Kind of assay: Inhibition of AKT isoforms, enzyme IC50. The format is biochemical.
The next assay deals with AKT1 (Homo sapiens, UniProt P31749). Kind of assay: Inhibition of AKT isoforms, enzyme IC50. The format is biochemical.
Chain of AKT1 (P31749 whole entry, species assumed, canonical isoform): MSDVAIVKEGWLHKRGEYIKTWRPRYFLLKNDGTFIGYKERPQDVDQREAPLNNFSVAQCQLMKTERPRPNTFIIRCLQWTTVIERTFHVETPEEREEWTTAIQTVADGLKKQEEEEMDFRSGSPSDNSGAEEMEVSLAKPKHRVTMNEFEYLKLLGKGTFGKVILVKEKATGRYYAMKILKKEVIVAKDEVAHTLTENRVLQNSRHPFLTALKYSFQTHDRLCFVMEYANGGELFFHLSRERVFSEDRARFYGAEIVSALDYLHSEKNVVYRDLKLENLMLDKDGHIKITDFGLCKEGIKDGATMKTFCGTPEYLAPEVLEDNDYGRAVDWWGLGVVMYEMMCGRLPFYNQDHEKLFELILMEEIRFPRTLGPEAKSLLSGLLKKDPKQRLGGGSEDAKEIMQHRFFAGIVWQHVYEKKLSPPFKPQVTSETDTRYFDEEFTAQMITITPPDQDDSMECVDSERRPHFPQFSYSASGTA

Chain of AKT2 (P31751 whole entry, species assumed, canonical isoform): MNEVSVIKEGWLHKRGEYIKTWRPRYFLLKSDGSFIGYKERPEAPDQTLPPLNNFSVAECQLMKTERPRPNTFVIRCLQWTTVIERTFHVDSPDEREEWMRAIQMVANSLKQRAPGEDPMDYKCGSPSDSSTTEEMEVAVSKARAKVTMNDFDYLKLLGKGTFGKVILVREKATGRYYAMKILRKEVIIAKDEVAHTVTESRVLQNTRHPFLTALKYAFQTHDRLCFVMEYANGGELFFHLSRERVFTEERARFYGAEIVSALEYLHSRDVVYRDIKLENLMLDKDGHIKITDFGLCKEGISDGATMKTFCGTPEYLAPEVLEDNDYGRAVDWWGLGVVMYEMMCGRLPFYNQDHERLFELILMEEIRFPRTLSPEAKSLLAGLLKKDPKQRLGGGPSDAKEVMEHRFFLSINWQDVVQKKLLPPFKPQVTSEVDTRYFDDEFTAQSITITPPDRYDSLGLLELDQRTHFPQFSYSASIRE
Chain of AKT3 (Q9Y243 whole entry, species assumed, canonical isoform): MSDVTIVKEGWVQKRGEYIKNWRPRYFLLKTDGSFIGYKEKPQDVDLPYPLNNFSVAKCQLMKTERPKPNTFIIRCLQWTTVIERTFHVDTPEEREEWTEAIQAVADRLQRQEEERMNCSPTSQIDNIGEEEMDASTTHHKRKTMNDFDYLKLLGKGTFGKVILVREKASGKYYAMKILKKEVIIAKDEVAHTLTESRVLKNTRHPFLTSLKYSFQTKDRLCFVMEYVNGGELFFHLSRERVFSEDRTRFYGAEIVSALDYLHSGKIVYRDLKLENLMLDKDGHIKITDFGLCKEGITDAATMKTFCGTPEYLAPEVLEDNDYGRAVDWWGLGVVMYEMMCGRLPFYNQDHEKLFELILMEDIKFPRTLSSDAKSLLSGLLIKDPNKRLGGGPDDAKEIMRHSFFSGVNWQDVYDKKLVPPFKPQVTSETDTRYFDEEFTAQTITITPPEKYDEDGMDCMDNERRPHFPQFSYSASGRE

Turning to `Nc1nonc1-c1nc2c(-c3cccc(Cl)c3)ncc(C(=O)NCCNCc3ccccc3)c2n1CC1CC1.O=C(O)C(F)(F)F` [Ex 8, 2-(4-amino-1,2,5-oxadiazol-3-yl)-4-(3-chlorophenyl)-1-(cyclopropylmethyl)-N-{2-[(phenylmethyl)amino]ethyl}-1H-imidazo[4,5-c]pyridine-7-carboxamide, trifluoroacetate salt], the “SR (sensitization ratio)” value in the assay with T47D cells came out at 7.1. Besides, in the assay with HN5 cells (then compound 25 μM 4 h), the “Sensitization Ratio in HN5 with 5 μM GW589522A” value (“Sensitization Ratio in HN5” below) is recorded as 27 @ 25. For the same compound, the results for the IC50 against AKT3, at AKT2 and at AKT1 were 450 nM, 7940 nM and 8320 nM, respectively.

As for `CCn1c(-c2nonc2N)nc2c(-c3cccc(Cl)c3)ncc(OCC3CCNCC3)c21.O=C(O)C(F)(F)F` [Ex 11, 4-{4-(3-chlorophenyl)-1-ethyl-7-[(4-piperidinylmethyl)oxy]-1H-imidazo-[4,5-c]pyridin-2-yl}-1,2,5-oxadiazol-3-amine trifluoroacetate], the entries for the “Sensitization Ratio in HN5” value in the assay on HN5 cells (then compound 2.5 μM 4 h) and in the assay on HN5 cells (then compound 5 μM 4 h) were 20 @ 2.5 and 25 @ 5, respectively. In addition, the half-maximal inhibitory concentration (IC50) against AKT3 stood at 10 nM; against AKT2, 20 nM; on AKT1 it was 30 nM.

Take `CCn1c(-c2nonc2N)nc2c(-c3cccc(Cl)c3)ncc(OCCCCN)c21.O=C(O)C(F)(F)F` [Ex 12, 4-[7-[(4-aminobutyl)oxy]-4-(3-chlorophenyl)-1-ethyl-1H-imidazo-[4,5-c]pyridin-2-yl]-1,2,5-oxadiazol-3-amine trifluoroacetate]: the “Sensitization Ratio in HN5” value in the assay with HN5 cells (then compound 25 μM 4 h) is recorded as 3.6 @ 25. Besides, the IC50 at AKT3 amounted to 10 nM; on AKT2, 40 nM; against AKT1, 40 nM.

Regarding `CCn1c(-c2nonc2N)nc2c(-c3ccccc3)ncc(OCCCN)c21.O=C(O)C(F)(F)F` [Ex 13, 4-{7-[(3-aminopropyl)oxy]-1-ethyl-4-phenyl-1H-imidazo[4,5-c]pyridin-2-yl}-1,2,5-oxadiazol-3-amine trifluoroacetate], in the assay on HN5 cells (then compound 5 μM 4 h), the “Sensitization Ratio in HN5” value was 12 @ 5. Further, the concentration for half-maximal inhibition (IC50) against AKT3 amounted to 10 nM; against AKT2, 20 nM; on AKT1, 40 nM.

`CCn1c(-c2nonc2N)nc2cncc(OCC3CCNCC3)c21` [Ex 14, 4-[1-Ethyl-7-(piperidin-4-ylmethoxy)-1H-imidazo[4,5-c]pyridin-2-yl]-furazan-3-ylamine]: the “Sensitization Ratio in HN5” value with HN5 cells (then compound 4 h, concentration not given) is given as 4.5 @. The half-maximal inhibitory concentration (IC50) against AKT3 was 510 nM; at AKT2 it was 270 nM; against AKT1, 70 nM.
